System: NOMO1
Assay: cell viability relative to DMSO control; higher = less cytotoxic
Conditions: 48 h
Procedure, shortened: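 Library compounds in DMSO were pin-dosed into 1536-well plates (5 μl) holding NOMO1 or SEM (500 cells/well) or P12-Ichikawa (1000 cells/well) leukemia cells, across an 11-point threefold series of 47 μM to 0.79 nM. Each cell line had been adapted for at least four passages in each medium. CellTiter-Glo One luminescence was read after 48 h at 37°C. Viability is the per-plate percentage relative to DMSO wells, with cell-free wells as background.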

[1] = HPLM + 10% dialyzed FBS, 0.000781 µM
[2] = HPLM + 10% dialyzed FBS, 0.00234 µM
[3] = HPLM + 10% dialyzed FBS, 0.00702 µM
[4] = HPLM + 10% dialyzed FBS, 0.0211 µM
[5] = HPLM + 10% dialyzed FBS, 0.0632 µM
[6] = HPLM + 10% dialyzed FBS, 0.19 µM
[7] = HPLM + 10% dialyzed FBS, 0.569 µM
[8] = HPLM + 10% dialyzed FBS, 1.71 µM
[9] = HPLM + 10% dialyzed FBS, 5.12 µM
[10] = HPLM + 10% dialyzed FBS, 15.4 µM
[11] = HPLM + 10% dialyzed FBS, 46.1 µM
[12] = RPMI 5 mM glucose + 10% FBS, 0.000781 µM
[13] = RPMI 5 mM glucose + 10% FBS, 0.00234 µM
[14] = RPMI 5 mM glucose + 10% FBS, 0.00702 µM
[15] = RPMI 5 mM glucose + 10% FBS, 0.0211 µM
[16] = RPMI 5 mM glucose + 10% FBS, 0.0632 µM
[17] = RPMI 5 mM glucose + 10% FBS, 0.19 µM
[18] = RPMI 5 mM glucose + 10% FBS, 0.569 µM
[19] = RPMI 5 mM glucose + 10% FBS, 1.71 µM
[20] = RPMI 5 mM glucose + 10% FBS, 5.12 µM
[21] = RPMI 5 mM glucose + 10% FBS, 15.4 µM
[22] = RPMI 5 mM glucose + 10% FBS, 46.1 µM
[23] = RPMI 5 mM glucose + 10% dialyzed FBS, 0.000781 µM
[24] = RPMI 5 mM glucose + 10% dialyzed FBS, 0.00234 µM
[25] = RPMI 5 mM glucose + 10% dialyzed FBS, 0.00702 µM
[26] = RPMI 5 mM glucose + 10% dialyzed FBS, 0.0211 µM
[27] = RPMI 5 mM glucose + 10% dialyzed FBS, 0.0632 µM
[28] = RPMI 5 mM glucose + 10% dialyzed FBS, 0.19 µM
[29] = RPMI 5 mM glucose + 10% dialyzed FBS, 0.569 µM
[30] = RPMI 5 mM glucose + 10% dialyzed FBS, 1.71 µM
[31] = RPMI 5 mM glucose + 10% dialyzed FBS, 5.12 µM
[32] = RPMI 5 mM glucose + 10% dialyzed FBS, 15.4 µM
[33] = RPMI 5 mM glucose + 10% dialyzed FBS, 46.1 µM

Compound | cell viability [1] [%] | cell viability [2] [%] | cell viability [3] [%] | cell viability [4] [%] | cell viability [5] [%] | cell viability [6] [%] | cell viability [7] [%] | cell viability [8] [%] | cell viability [9] [%] | cell viability [10] [%] | cell viability [11] [%] | cell viability [12] [%] | cell viability [13] [%] | cell viability [14] [%] | cell viability [15] [%] | cell viability [16] [%] | cell viability [17] [%] | cell viability [18] [%] | cell viability [19] [%] | cell viability [20] [%] | cell viability [21] [%] | cell viability [22] [%] | cell viability [23] [%] | cell viability [24] [%] | cell viability [25] [%] | cell viability [26] [%] | cell viability [27] [%] | cell viability [28] [%] | cell viability [29] [%] | cell viability [30] [%] | cell viability [31] [%] | cell viability [32] [%] | cell viability [33] [%]
CCCCN1CCC(CNC(=O)c2c3n(c4ccccc24)CCCO3)CC1 | 104 | 107 | 111 | 115 | 112 | 114 | 132 | 123 | 125 | 110 | 89.4 | 95.8 | 98.5 | 103 | 111 | 118 | 109 | 117 | 106 | 108 | 117 | 90.5 | 96.5 | 110 | 105 | 114 | 110 | 106 | 117 | 104 | 113 | 124 | 90.1
Cc1nc(-c2ccc(-c3ccc(C(=O)N4CCc5cc6c(cc54)C4(CCN(C)CC4)CO6)cc3)c(C)c2)no1 | 92.2 | 119 | 105 | 124 | 136 | 131 | 128 | 129 | 127 | 127 | 135 | 107 | 120 | 111 | 104 | 116 | 115 | 128 | 104 | 110 | 111 | 112 | 104 | 111 | 116 | 104 | 101 | 131 | 135 | 118 | 122 | 117 | 118
C=C1CCC2[C@](C)(CO)C(O)CC[C@]2(C)C1C/C=C1/C(=O)OCC1O (stereo partly specified) |  |  |  |  |  |  |  |  |  |  |  | 111 | 109 | 115 | 101 | 114 | 113 | 99.3 | 105 | 97.5 | 104 | 98.4 | 121 | 104 | 114 | 110 | 118 | 107 | 105 | 109 | 95.5 | 101 | 96.9
CC(O)(C[S+](=O)([O-])c1ccc(F)cc1)C(=O)Nc1ccc(C#N)c(C(F)(F)F)c1 (stereo unspecified) | 84.9 | 85.7 | 98.6 | 92.6 | 96.8 | 97 | 112 | 94.2 | 94.8 | 87.5 | 48 | 86.5 | 93.4 | 96.5 | 93.3 | 85.5 | 85.8 | 91.6 | 93.3 | 92.3 | 86.1 | 50.7 | 75.9 | 91.7 | 101 | 95.3 | 107 | 109 | 105 | 82.5 | 86.6 | 79.4 | 57
OC(=O)CNC(=O)\C1=C(/O)C2=CC=CC=C2N(CC3=CC=CC=C3)C1=O | 98.2 | 109 | 92 | 112 | 108 | 97.7 | 105 | 87.3 | 109 | 101 | 93.6 | 83.7 | 89.5 | 100 | 91.7 | 96.3 | 93 | 96.2 | 83.5 | 84.9 | 85.1 | 86.4 | 93 | 94.6 | 87.9 | 101 | 95.7 | 94 | 97.2 | 102 | 94.7 | 93 | 74.3
C[C@H](NC(=O)[C@@H](O)c1cc(F)cc(F)c1)C(=O)N[C@@H]1C(=O)N(C)c2ccccc2-c2ccccc21 |  |  |  |  |  |  |  |  |  |  |  | 103 | 115 | 106 | 122 | 109 | 114 | 104 | 86.6 | 97.7 | 101 | 97.3 | 119 | 116 | 119 | 113 | 113 | 105 | 101 | 113 | 102 | 97.3 | 84.5
Nc1ncnc2nc(-c3ccc(N4CCOCC4)nc3)cc(-c3cccc(Br)c3)c12 |  |  |  |  |  |  |  |  |  |  |  | 108 | 107 | 116 | 121 | 111 | 118 | 122 | 115 | 114 | 106 | 107 | 108 | 127 | 121 | 111 | 106 | 120 | 110 | 117 | 116 | 106 | 120
COc1cc(C[C@@H](CO)[C@H](CO)Cc2ccc(O)c(OC)c2)ccc1O | 97.7 | 99.3 | 97.2 | 123 | 112 | 122 | 126 | 108 | 107 | 101 | 104 | 107 | 118 | 101 | 111 | 103 | 108 | 106 | 97.2 | 104 | 94.4 | 102 | 95.8 | 111 | 113 | 107 | 118 | 110 | 107 | 107 | 104 | 103 | 112
